Measurements as given in PubChem BioAssay AID743394 (Broad Institute, 2014).
The source made the active and inactive calls.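 The calls were made as follows: active = 40% activation versus positive control reached by fitted dose-response curve at or below highest valid tested dose; inconclusive = poor fit quality, or flat fit with activation between 30% and 70%; inactive = the rest.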

Assay: inactive X chromosome reactivation in XiGFP fibroblasts, dose response, imaging, 68-5-11 mouse fibroblasts, GFP, cherry-pick (AID 743394);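 also: sensitizer 5-aza-dC present in the wells at 0.5 mM final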
Conditions: 68-5-11 mouse fibroblast XiGFP reporter, % GFP-positive imaging, 3 d
[1] = at 19.5 µM (top of the series), cells co-treated with 5-aza-dC sensitizer, scaled: neutral wells 0, ellipticine wells 100
[2] = at 21 µM (top of the series), cells co-treated with 5-aza-dC sensitizer, scaled: neutral wells 0, ellipticine wells 100

## Oc1ccc(Cl)cc1C=Nc1ccc2c3c(cccc13)CC2
[1]
  activation: 0.039% (inactive)

## Cc1nc(NC(=O)C(Cl)Cl)sc1C(=O)N(C)C
[1]
  activation: -0.034% (inactive)

## CCCCOc1nc2ccccc2nc1NS(=O)(=O)c1ccc(F)cc1
[1]
  activation: 0.851% (inactive)

## Cc1ccccc1NC(=O)c1c(C)[nH]c(=S)c(C#N)c1-c1ccc(Cl)cc1
[1]
  activation: 0.075% (inactive)

## Cc1ccc(S(=O)(=O)N(C)C[C@H]2Oc3ccc(NC(=O)Nc4ccccc4)cc3CC(=O)N([C@H](C)CO)C[C@@H]2C)cc1
[1]
  activation: -0.035% (inactive)

## COc1cc(/C=C/C(=O)c2ccc3c(c2)OCCO3)cc(Br)c1OCC(=O)N(C)C
[1]
  activation: -0.06% (inactive)

## CCOC(=O)c1c(C)[nH]c(N=Nc2ccc(OC)cc2)c1C
[1]
  activation: 1.01% (inactive)

## COc1ccc(/C=c2/sc3nc(-c4ccccc4)c(-c4ccccc4)n3c2=O)cc1
[1]
  activation: -0.002% (inactive)

## COc1ccccc1N1CCN(C(=O)CN2C(=O)c3cccc4cccc(c34)C2=O)CC1
[1]
  activation: 0.077% (inactive)

## CCOC(=O)C1CCN(c2c(NCc3ccc(C(=O)NC4CCCC4)cc3)c(=O)c2=O)CC1
[1]
  activation: -0.034% (inactive)

## O=C(Nc1ccc(F)cc1)N1CC(=O)N2[C@H](CO)[C@H](c3ccc(C#Cc4ccc(F)cc4)cc3)[C@@H]2C1
[1]
  activation: -0.031% (inactive)

## CO[C@H](CN(C)C(=O)Nc1ccc(C(F)(F)F)cc1)[C@@H](C)CN(Cc1ccccc1Cl)[C@@H](C)CO
[2]
  activation: 0% (inactive)

## CCOC(=O)c1sc(-c2ccc(F)cc2)cc1NC(=O)Nc1ccccc1OC
[1]
  activation: 0.169% (inactive)

## Cn1c(=O)c2[nH]c(-c3ccc(S(=O)(=O)O)cc3)nc2n(C)c1=O
[1]
  activation: 0.001% (inactive)

## C=CCNC(=O)N[C@@H](Cc1ccccc1)C(=O)OC
[1]
  activation: -0.065% (inactive)

## CCCCC(CCC(=O)Nc1ccn(-c2ccccc2)n1)C(=O)O (stereo not given)
[1]
  activation: 0% (inactive)

## S=C(NCc1ccco1)Nc1cccc(Cl)c1Cl
[1]
  activation: -0.047% (inactive)

## Cc1noc(C)c1NC(=O)N(C)C[C@@H]1Oc2ccc(NC(=O)C3CC3)cc2CC(=O)N([C@@H](C)CO)C[C@@H]1C
[2]
  activation: -0.023% (inactive)

## CCCCn1nnnc1C(c1ccccc1)N1CCN(c2ccc(C)cc2)CC1 (stereo not given)
[1]
  activation: 0.03% (inactive)

## Cc1ccccc1C1c2[nH]c3ccccc3c2CCN1Cc1cccn1-c1ncccn1 (stereo not given)
[1]
  activation: 0.097% (inactive)

## COC1=CC(=O)c2nc(Cl)ccc2C1=O
[1]
  activation: 5.06% (inactive)

## O=C(COC(=O)c1ccc(NS(=O)(=O)c2cccs2)cc1O)NC1CCCCC1
[1]
  activation: 0.098% (inactive)

## CC(C)Oc1ccc(/C(O)=C2/C(=O)C(=O)N(CCN(C)C)C2c2cccs2)cc1 (stereo not given)
[1]
  activation: 0.063% (inactive)

## Cc1n[nH]c(=S)n1/N=C/c1ccc(-c2ccc(Cl)cc2)o1
[1]
  activation: 1.87% (inactive)

## Cc1ccc(Nc2nc(N)nc(COC(=O)C3=COCCO3)n2)cc1
[1]
  activation: 0.004% (inactive)

## C[C@H](NC(=O)C[C@@H]1CC[C@H](NC(=O)Cc2ccccn2)[C@@H](CO)O1)c1ccccc1
[1]
  activation: 0.019% (inactive)

## O=[N+]([O-])c1ccc(S(=O)(=O)c2ccccc2)nc1
[1]
  activation: -0.024% (inactive)

## Cc1ccc(S(=O)(=O)N(C)c2ccc(C)c([N+](=O)[O-])c2)cc1
[1]
  activation: 0.488% (inactive)

## CCOC(=O)CSc1nnc(CCCCCN2C(=O)c3cccc4cccc(c34)C2=O)o1
[1]
  activation: 0.013% (inactive)

## CCCCCC[n+]1ccccc1/C=C/c1ccc(N(C)C)cc1
[1]
  activation: 6.32% (inactive)

## CCC(C(=O)Nc1cc(OC)c(NC(=O)c2ccccc2)cc1OC)c1ccccc1 (stereo not given)
[1]
  activation: -0.037% (inactive)

## CCOC(=O)Cc1c(C)[nH]n(-c2ccccc2)c1=O
[1]
  activation: 0.085% (inactive)

## Nc1ccccc1C#CC(=O)c1ccccc1
[1]
  activation: -0.07% (inactive)

## COc1ccccc1/C=C/C(=O)OCC(=O)NC(=O)NC1CCCC1
[1]
  activation: -0.012% (inactive)

## CC(=Nc1ccc(Cl)cc1N)c1c(O)cc(C)oc1=O
[1]
  activation: -0.044% (inactive)

## C=CC[C@@H](CC(=O)N(CCO)Cc1ccccc1)C(=O)NCCOC(=O)[C@@H](CC=C)Cc1ccc(F)cc1
[1]
  activation: -0.009% (inactive)

## Nc1c(-c2ccccc2)c(CN2CCOCC2)nn1-c1ccc(C(=O)O)cc1
[1]
  activation: -0.014% (inactive)

## Cc1ccsc1C1Nc2ccccc2-c2nc3ccccc3n21 (stereo not given)
[1]
  activation: -0.047% (inactive)

## Cc1cccc2sc(N(CCCN(C)C)C(=O)CN3C(=O)c4ccccc4C3=O)nc12
[1]
  activation: -0.047% (inactive)

## Cc1ccc(Cn2ccsc2=NC(=O)CCl)cc1
[1]
  activation: -0.035% (inactive)

## O=C(O)CSc1ncccn1
[1]
  activation: -0.015% (inactive)

## COc1ccccc1/C=C/C(=O)OCCCN(C)C
[1]
  activation: 0.018% (inactive)

## COc1cccc(NC(=O)N(C)C[C@@H]2Oc3cc(Br)ccc3S(=O)(=O)N([C@@H](C)CO)C[C@H]2C)c1
[1]
  activation: -0.016% (inactive)

## COc1ccc(OCCN2CCC(C(=O)NC(c3ccc(C)cc3)c3ccccn3)CC2)cc1 (stereo not given)
[1]
  activation: 0.883% (inactive)

## O=C(OCc1cccc(F)c1)c1ccc2c(=O)n3c(nc2c1)CCC3
[1]
  activation: 1.02% (inactive)

## C/C=C/c1ccc(C2[C@H]3CNC[C@@H]2N3Cc2cc(-c3ccccc3)on2)cc1 (stereo not given in full)
[1]
  activation: -0.031% (inactive)

## CCc1ccc(C(=O)NNc2ccc(S(N)(=O)=O)cc2)cc1
[1]
  activation: -0.007% (inactive)

## C[C@@H]1CN([C@@H](C)CO)C(=O)c2cc(NS(=O)(=O)c3ccccc3)ccc2O[C@@H](C)CCCCO[C@@H]1CN(C)Cc1ccc2c(c1)OCO2
[1]
  activation: 0% (inactive)

## CC(=O)Nc1sc(N/N=C/c2ccc(N(C)C)cc2)nc1-c1ccc(C)cc1
[1]
  activation: 0.052% (inactive)

## CCN(CC)c1ccc(/C=C/C(=O)C2C(=O)C=C(C)OC2=O)cc1 (stereo not given)
[1]
  activation: 3.58% (inactive)

## COc1ccc(COc2ccccc2C(=O)NCc2ccccc2)cc1F
[1]
  activation: -0.07% (inactive)

## O=C(Nc1ccccc1N1CCCCC1)c1cnccn1
[1]
  activation: -0.052% (inactive)

## CC(C)c1cc(C(=O)N/N=C/c2cccnc2)cs1
[1]
  activation: 0.54% (inactive)

## CCOC(=O)Nc1ccc2nc(-c3cscn3)[nH]c2c1
[1]
  activation: 0.097% (inactive)

## COc1cccc(CNC(=O)c2ccc(NC(=O)CC3SC(N4CCCC4)=NC3=O)cc2)c1 (stereo not given)
[1]
  activation: 0.01% (inactive)

## Cc1ccc(O)c(N=Nc2ccc(S(=O)(=O)N3CCCC3)cc2)c1
[1]
  activation: 0.067% (inactive)

## COCCCn1c(C)cc(C(=O)COC(=O)CCc2nc3ccccc3c(=O)[nH]2)c1C
[1]
  activation: 0.39% (inactive)

## O=C(Cc1ccccn1)N1CCCCN2[C@H](C1)[C@@H](c1ccc(-c3ccccc3F)cc1)[C@@H]2CO
At 19.5 µM (top of the series)
  activation: 1.33% (inactive)

## Cc1ccc(-c2nc(CS(=O)CC(=O)NCCCN3CC(C)CC(C)C3)c(C)o2)cc1 (stereo not given)
[1]
  activation: 0.4% (inactive)

## Cc1ccc2c(COC(=O)C34CC5CC(CC(C5)C3)C4)cc(=O)oc2c1
[1]
  activation: -0.07% (inactive)

## COc1ccc(C)c(-n2c(=O)n(Cc3ccccc3)c(=O)c3[nH]cnc32)c1
[1]
  activation: -0.006% (inactive)

## Nc1[nH]c(=O)nc(Nc2ccccc2)c1N=O
[1]
  activation: -0.037% (inactive)

## Cc1n[nH]c(=S)n(/N=C/c2cccc([N+](=O)[O-])c2)c1=O
[1]
  activation: -0.091% (inactive)

## COc1ccc2c(c1)c(/C=N/Nc1nc3ccccc3[nH]1)c(C)n2C
[1]
  activation: 5.21% (inactive)

## COc1ccc(CN(C)C[C@H]2OCCCC[C@H](C)Oc3ccc(NC(=O)Nc4ccc(F)cc4)cc3C(=O)N([C@H](C)CO)C[C@H]2C)cc1
[1]
  activation: 0.981% (inactive)
